Data taken from patent publication US20100068181A1, “PYRROLO [3, 2-A] PYRIDINE DERIVATIVES FOR INHIBITING KSP KINESIN ACTIVITY” (Schering Corporation, priority 2006, published 2010).

Biological target: T1, KSP (Homo sapiens, UniProt P52732)
T1 sequence (P52732 1-1056): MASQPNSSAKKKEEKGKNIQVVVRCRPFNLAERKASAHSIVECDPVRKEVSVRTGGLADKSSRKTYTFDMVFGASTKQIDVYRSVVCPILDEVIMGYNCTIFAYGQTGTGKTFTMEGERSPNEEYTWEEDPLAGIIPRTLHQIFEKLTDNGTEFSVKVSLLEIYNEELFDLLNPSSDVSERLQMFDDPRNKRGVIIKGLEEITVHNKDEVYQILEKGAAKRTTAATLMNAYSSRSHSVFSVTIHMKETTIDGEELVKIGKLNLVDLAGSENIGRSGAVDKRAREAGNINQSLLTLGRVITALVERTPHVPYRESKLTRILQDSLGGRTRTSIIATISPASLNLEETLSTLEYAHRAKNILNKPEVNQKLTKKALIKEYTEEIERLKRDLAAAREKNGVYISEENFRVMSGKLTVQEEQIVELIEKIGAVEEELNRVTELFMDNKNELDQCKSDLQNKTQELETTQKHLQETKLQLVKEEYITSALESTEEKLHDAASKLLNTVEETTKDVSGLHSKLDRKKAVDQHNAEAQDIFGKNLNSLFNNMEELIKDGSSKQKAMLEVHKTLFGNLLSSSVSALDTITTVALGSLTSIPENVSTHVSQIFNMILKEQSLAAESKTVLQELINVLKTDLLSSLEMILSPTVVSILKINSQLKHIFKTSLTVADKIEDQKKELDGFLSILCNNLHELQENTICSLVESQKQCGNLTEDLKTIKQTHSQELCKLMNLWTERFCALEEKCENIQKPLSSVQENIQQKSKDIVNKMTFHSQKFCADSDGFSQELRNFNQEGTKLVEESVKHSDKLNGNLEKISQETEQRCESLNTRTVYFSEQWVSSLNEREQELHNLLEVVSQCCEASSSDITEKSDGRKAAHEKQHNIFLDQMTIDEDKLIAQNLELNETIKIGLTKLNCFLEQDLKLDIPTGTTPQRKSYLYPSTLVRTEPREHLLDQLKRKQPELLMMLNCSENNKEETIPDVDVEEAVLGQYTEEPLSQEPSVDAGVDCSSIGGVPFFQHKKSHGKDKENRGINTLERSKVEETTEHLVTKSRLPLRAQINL
Assay: KSP inhibitory activity, end-point assay
Assay type: biochemical
Settings: KSP inhibitory activity based on end-point assay; read-out: IC50 Rating
Excerpt: The inhibitory activity of the present compounds towards KSP may be assayed by methods known in the art, for example, by using the methods as described in the examples.

IC50 [nM]	Structure (SMILES)
< 100	CC(C)(C)[C@@H]1CCc2nc3cc(C(N)=O)[nH]c3cc2C1 (single isomer, unassigned) [Example 21A]
100 to 1000	CC(C)(C)[C@H]1CCc2nc3cc(C(N)=O)[nH]c3cc2C1 (single isomer, unassigned) [Example 21B]
< 100	CNC(=O)c1cc2nc3c(cc2[nH]1)C[C@H](C(C)(C)C)CC3 (single isomer, unassigned) [Example 22A]
100 to 1000	CNC(=O)c1cc2nc3c(cc2[nH]1)C[C@@H](C(C)(C)C)CC3 (single isomer, unassigned) [Example 22B]
1000 to 10000	CCOC(=O)c1cc2nc3c(cc2[nH]1)CC(C(C)(C)C)CC3 (stereo not shown) [Example 1]
< 100	CC(C)(C)C1CCc2nc3cc(C(N)=O)[nH]c3cc2C1 (stereo not shown) [Example 2]
< 100	CNC(=O)c1cc2nc3c(cc2[nH]1)CC(C(C)(C)C)CC3 (stereo not shown) [Example 3]
100 to 1000	CCNC(=O)c1cc2nc3c(cc2[nH]1)CC(C(C)(C)C)CC3 (stereo not shown) [Example 4]
100 to 1000	CC(C)(C)C1CCc2nc3cc(C(=O)NCCCCN)[nH]c3cc2C1 (stereo not shown) [Example 5]
100 to 1000	CC(C)(C)C1CCc2nc3cc(C(=O)NCCN)[nH]c3cc2C1 (stereo not shown) [Example 6]
100 to 1000	CC(C)(C)C1CCc2nc3cc(C(=O)NCCO)[nH]c3cc2C1 (stereo not shown) [Example 7]
1000 to 10000	CC(C)(C)C1CCc2nc3cc(C(=O)NCCCN)[nH]c3cc2C1 (stereo not shown) [Example 8]
100 to 1000	CC(C)(C)C1CCc2nc3cc(C(=O)NCCCO)[nH]c3cc2C1 (stereo not shown) [Example 9]
100 to 1000	CC(C)(C)C1CCc2nc3cc(C(=O)NCCCCCN)[nH]c3cc2C1 (stereo not shown) [Example 10]
1000 to 10000	CC(C)(C)C1CCc2nc3cc(C(=O)NCCCCCO)[nH]c3cc2C1 (stereo not shown) [Example 11]
> 10000	CC(C)(C)C1CCc2nc3cc(C(=O)NCCCCCCO)[nH]c3cc2C1 (stereo not shown) [Example 12]
1000 to 10000	CC(C)(C)C1CCc2nc3cc(C(=O)NCCCCO)[nH]c3cc2C1 (stereo not shown) [Example 13]

IC50 [nM]	Structure (SMILES)
100 to 1000	CC(C)(C)C1CCc2nc3cc(C(=O)NCCCCCCN)[nH]c3cc2C1 (stereo not shown) [Example 14]
> 10000	CC(C)(C)C1CCc2nc3cc(C(=O)NCCc4ccc(O)cc4)[nH]c3cc2C1 (stereo not shown) [Example 15]
< 100	CC(C)(C)C1CCc2nc3cc(C(=O)NN)[nH]c3cc2C1 (stereo not shown) [Example 17]
> 10000	CC(C)(C)C1CCc2nc3cc(C(=O)NCc4ccccc4)[nH]c3cc2C1 (stereo not shown) [Example 18]
> 10000	CC(C)(C)C1CCc2nc3cc(C(=O)NCc4cccnc4)[nH]c3cc2C1 (stereo not shown) [Example 19]
1000 to 10000	C[C@@H](CO)NC(=O)c1cc2nc3c(cc2[nH]1)CC(C(C)(C)C)CC3 (stereo partly shown) [Example 20]
< 100	CC(C)(C)C1CCc2nc3cc(CO)[nH]c3cc2C1 (stereo not shown) [Example 23]
100 to 1000	CC(C)(C)C1CCc2nc3cc(CN)[nH]c3cc2C1 (stereo not shown) [Example 25]
1000 to 10000	C=Cc1cc2nc3c(cc2[nH]1)CC(C(C)(C)C)CC3 (stereo not shown) [Example 28]
100 to 1000	CC(O)c1cc2nc3c(cc2[nH]1)CC(C(C)(C)C)CC3 (stereo not shown) [Example 29]
100 to 1000	CC(=O)c1cc2nc3c(cc2[nH]1)CC(C(C)(C)C)CC3 (stereo not shown) [Example 30]
> 10000	CC(=NO)c1cc2nc3c(cc2[nH]1)CC(C(C)(C)C)CC3 (stereo not shown) [Example 31]
> 10000	CC(C)(C)C1CCc2nc3c(CCCN)c(C(N)=O)[nH]c3cc2C1 (stereo not shown) [Example 53]
100 to 1000	CCc1c(C(=O)NCCN)[nH]c2cc3c(nc12)CCC(C(C)(C)C)C3 (stereo not shown) [Example 60]
1000 to 10000	CC(C)(C)C1CCc2nc3c(C(=O)NCCO)c[nH]c3cc2C1 (stereo not shown) [Example 72]
> 10000	CC(C)(C)C1CCc2nc3c(C(=O)NCCN)c[nH]c3cc2C1 (stereo not shown) [Example 73]

Continued, compound first:

Structure (SMILES)	IC50 [nM]
CN1CCN(C(=O)c2cc3nc4c(cc3[nH]2)CC(C(C)(C)C)CC4)CC1 (stereo not shown) [Example 16]	> 10000
CC(C)(C)C1CCc2nc3c([N+](=O)[O-])c(C(N)=O)[nH]c3cc2C1 (stereo not shown) [Example 26]	> 10000
CC(C)(C)C1CCc2nc3c(N)c(C(N)=O)[nH]c3cc2C1 (stereo not shown) [Example 27]	100 to 1000
CC(C)(C)C1CCc2nc3cc(COC(=O)c4ccccc4)[nH]c3cc2C1 (stereo not shown) [Example 32]	> 10000
CC(C)(C)C1CCc2nc3cc(CC#N)[nH]c3cc2C1 (stereo not shown) [Example 33]	1000 to 10000
CCOC(=O)c1[nH]c2cc3c(nc2c1Br)CCC(C(C)(C)C)C3 (stereo not shown) [Example 34]	> 10000
CC(C)(C)C1CCc2nc3c(Br)c(C(N)=O)[nH]c3cc2C1 (stereo not shown) [Example 35]	> 10000
Cc1[nH]c2cc3c(nc2c1CCO)CCC(C(C)(C)C)C3 (stereo not shown) [Example 36]	> 10000
CC(C)(C)C1CCc2nc3c(CCO)c(CO)[nH]c3cc2C1 (stereo not shown) [Example 37]	> 10000
CCOC(=O)c1[nH]c2cc3c(nc2c1/C=C/C(=O)OC)CCC(C(C)(C)C)C3 (stereo not shown) [Example 39]	> 10000
CC(C)(C)C1CCc2nc3c(CCC(N)=O)c(C(N)=O)[nH]c3cc2C1 (stereo not shown) [Example 40]	1000 to 10000
CC(C)(C)C1CCc2nc3c(CCC#N)c(C#N)[nH]c3cc2C1 (stereo not shown) [Example 41]	1000 to 10000
CCOC(=O)c1cc2nc3c(cc2n1C(C)=O)CC(C(C)(C)C)CC3 (stereo not shown) [Example 42]	> 10000
CC(C)(C)C1CCc2nc3cc(/C=N/NC(N)=S)[nH]c3cc2C1 (stereo not shown) [Example 43]	> 10000
CC(=O)NC(Cc1c(C(N)=O)[nH]c2cc3c(nc12)CCC(C(C)(C)C)C3)C(N)=O (stereo not shown) [Example 44]	> 10000
CCOC(=O)c1[nH]c2cc3c(nc2c1C)CCC(C(C)(C)C)C3 (stereo not shown) [Example 45]	> 10000
Cc1c(C(N)=O)[nH]c2cc3c(nc12)CCC(C(C)(C)C)C3 (stereo not shown) [Example 46]	> 10000
CCOC(=O)c1[nH]c2cc3c(nc2c1CC)CCC(C(C)(C)C)C3 (stereo not shown) [Example 47]	> 10000
CCc1c(C(N)=O)[nH]c2cc3c(nc12)CCC(C(C)(C)C)C3 (stereo not shown) [Example 48]	1000 to 10000
CCOC(=O)c1[nH]c2cc3c(nc2c1CCCO)CCC(C(C)(C)C)C3 (stereo not shown) [Example 49]	> 10000
CC(C)(C)C1CCc2nc3c(CCCO)c(C(N)=O)[nH]c3cc2C1 (stereo not shown) [Example 50]	100 to 1000

Structure (SMILES)	IC50 [nM]
CCOC(=O)c1[nH]c2cc3c(nc2c1CCCN)CCC(C(C)(C)C)C3 (stereo not shown) [Example 51]	> 10000
CC(C)(C)OC(=O)NCCCc1c(C(N)=O)[nH]c2cc3c(nc12)CCC(C(C)(C)C)C3 (stereo not shown) [Example 52]	> 10000
CCOC(=O)c1[nH]c2cc3c(nc2c1CC(O)CO)CCC(C(C)(C)C)C3 (stereo not shown) [Example 54]	> 10000
CC(C)(C)C1CCc2nc3c(CC(O)CO)c(C(N)=O)[nH]c3cc2C1 (stereo not shown) [Example 55]	> 10000
CC(C)(C)C1CCc2nc3c(C#CCCO)c(C(N)=O)[nH]c3cc2C1 (stereo not shown) [Example 56]	> 10000
CC(C)(C)C1CCc2nc3c(CCCCO)c(C(N)=O)[nH]c3cc2C1 (stereo not shown) [Example 57]	100 to 1000
CC(C)(C)C1CCc2nc3c(C#CCCCO)c(C(N)=O)[nH]c3cc2C1 (stereo not shown) [Example 58]	> 10000
CC(C)(C)C1CCc2nc3c(CCCCCO)c(C(N)=O)[nH]c3cc2C1 (stereo not shown) [Example 59]	1000 to 10000
CCOC(=O)c1[nH]c2cc3c(nc2c1NC(=O)COC(C)=O)CCC(C(C)(C)C)C3 (stereo not shown) [Example 62]	> 10000
CC(C)(C)C1CCc2nc3c(NC(=O)CO)c(C(N)=O)[nH]c3cc2C1 (stereo not shown) [Example 63]	1000 to 10000
CCOC(=O)c1[nH]c2cc3c(nc2c1NCCOC)CCC(C(C)(C)C)C3 (stereo not shown) [Example 64]	> 10000
CCOC(=O)c1[nH]c2cc3c(nc2c1NCCO)CCC(C(C)(C)C)C3 (stereo not shown) [Example 65]	> 10000
CC(C)(C)C1CCc2nc3c(NCCO)c(C(N)=O)[nH]c3cc2C1 (stereo not shown) [Example 66]	1000 to 10000
CCOC(=O)c1[nH]c2cc3c(nc2c1NCCCO)CCC(C(C)(C)C)C3 (stereo not shown) [Example 67]	> 10000
CC(C)(C)C1CCc2nc3c(NS(C)(=O)=O)c(C(N)=O)[nH]c3cc2C1 (stereo not shown) [Example 68]	1000 to 10000
CCOC(=O)c1c(Cl)[nH]c2cc3c(nc12)CCC(C(C)(C)C)C3 (stereo not shown) [Example 69]	> 10000
CCOC(=O)c1c[nH]c2cc3c(nc12)CCC(C(C)(C)C)C3 (stereo not shown) [Example 70]	> 10000
COC(=O)c1c[nH]c2cc3c(nc12)CCC(C(C)(C)C)C3 (stereo not shown) [Example 71]	> 10000
CC(C)(C)C1CCc2nc3c(C(=O)NCCN4CCNCC4)c[nH]c3cc2C1 (stereo not shown) [Example 74]	> 10000
CC(C)(C)C1CCc2nc3c(C(=O)NCc4cccnc4)c[nH]c3cc2C1 (stereo not shown) [Example 75]	> 10000

Same assay, conditions: numerical IC50 values for representative compounds; read-out: IC50

IC50 [nM]	Structure (SMILES)
30	CC(C)(C)[C@@H]1CCc2nc3cc(C(N)=O)[nH]c3cc2C1 (single isomer, unassigned) [Example 21A]
20	CNC(=O)c1cc2nc3c(cc2[nH]1)C[C@H](C(C)(C)C)CC3 (single isomer, unassigned) [Example 22A]
30	CC(C)(C)C1CCc2nc3cc(C(N)=O)[nH]c3cc2C1 (stereo not shown) [Example 2]
50	CNC(=O)c1cc2nc3c(cc2[nH]1)CC(C(C)(C)C)CC3 (stereo not shown) [Example 3]
40	CC(C)(C)C1CCc2nc3cc(CO)[nH]c3cc2C1 (stereo not shown) [Example 23]
